In US5314998A, “Organic solvent-soluble metal-azo and metal-azomethine dyes” (Minnesota Mining and Manufacturing Company, priority 1992, dated 1994):

Columns and labels:
[1] = reported to decompose, apparently without melting; cited from earlier work
[2] = Thermogravimetric analysis, loss of pyridine ligand; format: physicochemical
[3] = Differential Scanning Calorimeter scan, melting behaviour; conditions: Differential Scanning Calorimeter scan of analytically pure compound
Description: Melting points of the metal complexes were determined using a Thomas-Hoover melting point apparatus or by differential scanning calorimetry at a heating rate of 5° C. per minute.

[4] = Solubility in heptane (absorbance at maximum of saturated solution), chromium metal-azo complexes; format: physicochemical; conditions: room temperature (22° C.)
Description: The samples were prepared by shaking the dye in heptane for several hours, allowing the samples to sit overnight, and filtering through a plug of glass wool to remove particulates.

[5] = Solubility in heptane (absorbance at maximum), four-coordinate platinum metal-azo complexes; format: physicochemical; conditions: ambient temperature
From the text: ^b result obtained by measuring in a 1 cm cell and dividing result by
^c estimate based on fitting the spectrum in the 510-550 nm region.

Compound	Temperature of 50% Loss of Pyridine Ligand [2] [°C]	DSC melting behaviour [3]	Absorbance at Maximum in Heptane/1 mm Cell [4]	also measured
[Cu+2].[O-]c1ccccc1N=Nc1ccccc1[O-].c1ccncc1 [Compound 8, [[2,2-azobis[phenolato]](-2)-N,O,O](pyridine)copper]	133	–	–	decomposition temperature [1]: 310 °C
CCCCC(CCCC)c1ccncc1.[Cu+2].[O-]c1ccccc1N=Nc1ccccc1[O-] [Compound 9, [[2,2-azobis[phenolato]](-2)-N,O,O](4-(5-nonylpyridine))copper]	148	has a classic melting transition associated with organic-like compounds	–	–
CCCCC(CCCC)c1ccncc1.CCCCN(CCCC)S(=O)(=O)c1ccc([O-])c(N=Nc2c([O-])ccc3ccccc23)c1.[Cu+2] [Compound 11, [1-[5-N,N-dibutylsulfonamido-2-hydroxyphenyl]azo-2-naphthalenolato(-2)](4-(5-nonylpyridine))copper]	223	has a classic melting transition associated with organic-like compounds	–	–
CC(=O)[CH-]C(C)=O.[Cr+3].[O-]c1ccccc1N=Nc1ccccc1[O-].c1ccncc1 [Compound 28, [[2,2-azobis[phenolato]](-2)-N,O,O](pyridine)(2,4-pentanedionato-O,O)chromium]	–	–	0.022	–
CC(=O)C=C(C)[O-].CCc1ccncc1.[Cr+3].[O-]c1ccccc1N=Nc1ccccc1[O-] [Compound 31, [[2,2-azobis[phenolato]](-2)-N,O,O](2,4-pentanedionato-O,O)(4-ethylpyridine)chromium]	–	–	0.644	–
CC(=O)C=C(C)[O-].CCOC(=O)c1cccnc1.[Cr+3].[O-]c1ccccc1N=Nc1ccccc1[O-] [Compound 32, [[2,2-azobis[phenolato]](-2)-N,O,O](2,4-pentanedionato-O,O)(ethyl nicotinate)chromium]	–	–	0.362	–
[O-]c1ccccc1N=Nc1ccccc1[O-].[Pt+2].c1ccncc1 [Pt(DHAB)Py, [[2,2azobis[phenolato]](2)-N,O,O](pyridine)platinum, reference compound]	–	–	–	Absorbance at Maximum in Heptane/1 mm Cell [5]: 0.41
[1-[5-N,N-dibutylsulfonamido-2-hydroxyphenyl]azo-2-naphthalenolato(-2)](pyridine)copper [Compound 10]	180	does not exhibit a clean melt	–	–
[[2,2-azobis[phenolato]](-2)-N,O,O](2,4-pentanedionato-O,O)(ethyl isonicotinate)chromium [Compound 33]	–	–	0.634	–
[[2,2-azobis[phenolato]](-2)-N,O,O](4-n-octylpyridine)platinum [Compound 17]	–	–	–	Absorbance at Maximum in Heptane/1 mm Cell [5]: 2.49
